# Measurements from patent publication US10870647B2, “Imidazopyridine derivative, method for preparing same, and pharmaceutical composition containing same as active ingredient for preventing or treating cancer” (DAEGU-GYEONGBUK MEDICAL INNOVATION FOUNDATION, priority 2016, dated 2020).
# Tests used:
# Assay in all cases: Kinase selectivity, scanMAX Kinase assay panel (DiscoverX), % control at 1 uM
# Assay type in all cases: binding
# [1] = target: T1, scanMAX Kinase assay panel (Homo sapiens, UniProt O14936); conditions: CASK; 1 uM; read-out: Percent Control (%)
# T1 construct: purchased DiscoverX
# T1 sequence (O14936 1-926): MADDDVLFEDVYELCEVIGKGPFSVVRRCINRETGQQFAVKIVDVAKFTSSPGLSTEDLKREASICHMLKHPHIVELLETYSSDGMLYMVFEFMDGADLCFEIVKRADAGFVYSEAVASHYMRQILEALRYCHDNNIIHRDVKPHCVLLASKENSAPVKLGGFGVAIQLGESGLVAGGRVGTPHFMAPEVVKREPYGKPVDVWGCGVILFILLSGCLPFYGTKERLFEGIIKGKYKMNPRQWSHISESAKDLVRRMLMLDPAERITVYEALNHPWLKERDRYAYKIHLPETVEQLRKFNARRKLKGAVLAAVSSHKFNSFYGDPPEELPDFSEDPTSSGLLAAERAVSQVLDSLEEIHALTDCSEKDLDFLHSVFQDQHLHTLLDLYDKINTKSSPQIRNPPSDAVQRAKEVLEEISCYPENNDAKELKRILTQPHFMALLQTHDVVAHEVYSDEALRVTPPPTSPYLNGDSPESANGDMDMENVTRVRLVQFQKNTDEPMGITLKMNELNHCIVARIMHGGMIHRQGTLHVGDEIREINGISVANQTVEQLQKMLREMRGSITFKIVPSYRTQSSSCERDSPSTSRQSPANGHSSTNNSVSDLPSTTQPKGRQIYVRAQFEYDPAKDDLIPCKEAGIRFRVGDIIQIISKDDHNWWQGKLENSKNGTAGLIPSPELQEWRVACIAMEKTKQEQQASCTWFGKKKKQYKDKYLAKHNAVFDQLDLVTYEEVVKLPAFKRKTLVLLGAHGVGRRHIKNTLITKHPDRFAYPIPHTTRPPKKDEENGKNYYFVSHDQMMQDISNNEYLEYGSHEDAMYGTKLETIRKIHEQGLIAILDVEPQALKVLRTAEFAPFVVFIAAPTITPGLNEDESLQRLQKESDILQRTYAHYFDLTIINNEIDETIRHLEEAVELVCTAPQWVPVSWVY
# In short: (§1)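 Activity was called for kinases showing % control under 35, calculated from compound signal relative to positive and negative controls. Each compound screened at 1 uM against the DiscoverX scanMAX panel.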
# [2] = target: T2, scanMAX Kinase assay panel (Homo sapiens, UniProt Q13164); conditions: ERK5; 1 uM; read-out: Percent Control (%)
# T2 construct: purchased DiscoverX
# In short: as §1
# [3] = target: T3, scanMAX Kinase assay panel (Homo sapiens, UniProt P42336, C420R); conditions: PIK3CA (C420R); 1 uM; read-out: Percent Control (%)
# T3 construct: purchased DiscoverX
# In short: as §1
# [4] = target: T4, scanMAX Kinase assay panel (Homo sapiens, UniProt Q9UHD2); conditions: TBK1; 1 uM; read-out: Percent Control (%)
# T4 construct: purchased DiscoverX
# T4 sequence (Q9UHD2 1-729): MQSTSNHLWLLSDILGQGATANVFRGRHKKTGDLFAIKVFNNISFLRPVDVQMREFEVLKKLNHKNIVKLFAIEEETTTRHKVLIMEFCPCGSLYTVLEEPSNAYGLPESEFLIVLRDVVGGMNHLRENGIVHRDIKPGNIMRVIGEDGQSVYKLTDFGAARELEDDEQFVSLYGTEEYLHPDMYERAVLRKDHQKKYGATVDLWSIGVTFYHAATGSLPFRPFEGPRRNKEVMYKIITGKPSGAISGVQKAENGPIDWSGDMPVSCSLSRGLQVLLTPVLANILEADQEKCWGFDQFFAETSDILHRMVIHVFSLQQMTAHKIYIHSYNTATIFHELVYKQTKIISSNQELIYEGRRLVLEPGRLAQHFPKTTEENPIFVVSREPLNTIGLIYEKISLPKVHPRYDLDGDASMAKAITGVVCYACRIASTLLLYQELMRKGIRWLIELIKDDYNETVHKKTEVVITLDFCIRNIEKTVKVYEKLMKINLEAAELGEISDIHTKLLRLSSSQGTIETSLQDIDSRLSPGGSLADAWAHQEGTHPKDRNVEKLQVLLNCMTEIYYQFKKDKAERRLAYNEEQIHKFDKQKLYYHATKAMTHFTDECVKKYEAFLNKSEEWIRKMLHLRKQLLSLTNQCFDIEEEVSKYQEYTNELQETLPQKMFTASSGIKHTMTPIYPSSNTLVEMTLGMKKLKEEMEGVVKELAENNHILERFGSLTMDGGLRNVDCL
# In short: as §1
# [5] = target: T5, scanMAX Kinase assay panel (Homo sapiens, UniProt O43353); conditions: RIPK2; 1 uM; read-out: Percent Control (%)
# T5 construct: purchased DiscoverX
# In short: as §1
# T2 sequence (Q13164 whole entry): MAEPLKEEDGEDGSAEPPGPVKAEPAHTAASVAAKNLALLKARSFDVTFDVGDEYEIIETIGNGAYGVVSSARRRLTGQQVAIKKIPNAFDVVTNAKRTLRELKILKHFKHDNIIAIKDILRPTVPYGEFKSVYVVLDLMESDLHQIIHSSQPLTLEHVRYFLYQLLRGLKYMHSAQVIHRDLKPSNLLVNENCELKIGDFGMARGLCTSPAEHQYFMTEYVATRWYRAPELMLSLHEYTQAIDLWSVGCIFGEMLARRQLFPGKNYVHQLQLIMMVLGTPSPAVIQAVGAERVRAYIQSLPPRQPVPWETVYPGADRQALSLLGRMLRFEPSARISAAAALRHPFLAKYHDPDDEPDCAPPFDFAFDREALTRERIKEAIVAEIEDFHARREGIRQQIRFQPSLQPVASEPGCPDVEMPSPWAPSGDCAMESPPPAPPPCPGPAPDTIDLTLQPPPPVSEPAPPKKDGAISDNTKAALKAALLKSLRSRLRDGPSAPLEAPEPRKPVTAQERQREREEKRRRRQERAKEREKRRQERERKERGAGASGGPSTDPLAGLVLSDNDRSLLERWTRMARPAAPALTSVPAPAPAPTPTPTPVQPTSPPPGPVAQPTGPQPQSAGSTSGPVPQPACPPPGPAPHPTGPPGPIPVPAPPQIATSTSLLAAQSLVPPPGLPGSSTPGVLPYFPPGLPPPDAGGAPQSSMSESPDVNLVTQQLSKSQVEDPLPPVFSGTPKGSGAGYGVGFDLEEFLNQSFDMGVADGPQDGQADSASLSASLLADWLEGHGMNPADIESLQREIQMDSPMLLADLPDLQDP
# T3 sequence (P42336 whole entry C420R): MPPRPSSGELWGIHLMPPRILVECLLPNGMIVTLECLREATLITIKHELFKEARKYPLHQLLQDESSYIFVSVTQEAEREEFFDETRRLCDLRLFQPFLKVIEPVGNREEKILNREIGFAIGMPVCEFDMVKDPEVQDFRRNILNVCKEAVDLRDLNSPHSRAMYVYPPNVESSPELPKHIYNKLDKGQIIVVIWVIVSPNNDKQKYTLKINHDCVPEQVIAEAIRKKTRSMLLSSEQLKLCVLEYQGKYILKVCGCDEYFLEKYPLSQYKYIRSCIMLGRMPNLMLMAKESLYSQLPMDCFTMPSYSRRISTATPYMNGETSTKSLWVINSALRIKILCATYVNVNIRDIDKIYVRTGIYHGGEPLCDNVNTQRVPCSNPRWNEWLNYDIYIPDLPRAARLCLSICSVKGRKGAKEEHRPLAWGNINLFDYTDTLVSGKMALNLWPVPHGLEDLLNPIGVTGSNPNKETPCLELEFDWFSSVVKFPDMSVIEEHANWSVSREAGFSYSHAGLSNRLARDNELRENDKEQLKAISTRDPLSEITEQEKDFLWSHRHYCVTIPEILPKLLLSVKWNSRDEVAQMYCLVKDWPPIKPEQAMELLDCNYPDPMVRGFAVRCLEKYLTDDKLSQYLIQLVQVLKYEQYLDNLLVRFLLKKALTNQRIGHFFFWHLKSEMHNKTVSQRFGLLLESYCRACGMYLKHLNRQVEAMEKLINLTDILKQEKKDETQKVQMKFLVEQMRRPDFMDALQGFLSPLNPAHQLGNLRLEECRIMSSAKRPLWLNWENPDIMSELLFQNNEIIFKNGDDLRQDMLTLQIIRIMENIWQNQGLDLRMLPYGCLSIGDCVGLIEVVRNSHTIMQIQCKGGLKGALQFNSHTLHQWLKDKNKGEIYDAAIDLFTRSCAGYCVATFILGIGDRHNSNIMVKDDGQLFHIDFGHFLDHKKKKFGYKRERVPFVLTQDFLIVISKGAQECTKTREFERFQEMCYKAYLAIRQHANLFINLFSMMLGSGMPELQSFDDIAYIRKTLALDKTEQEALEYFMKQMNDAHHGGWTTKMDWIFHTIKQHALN
# T5 sequence (O43353 whole entry): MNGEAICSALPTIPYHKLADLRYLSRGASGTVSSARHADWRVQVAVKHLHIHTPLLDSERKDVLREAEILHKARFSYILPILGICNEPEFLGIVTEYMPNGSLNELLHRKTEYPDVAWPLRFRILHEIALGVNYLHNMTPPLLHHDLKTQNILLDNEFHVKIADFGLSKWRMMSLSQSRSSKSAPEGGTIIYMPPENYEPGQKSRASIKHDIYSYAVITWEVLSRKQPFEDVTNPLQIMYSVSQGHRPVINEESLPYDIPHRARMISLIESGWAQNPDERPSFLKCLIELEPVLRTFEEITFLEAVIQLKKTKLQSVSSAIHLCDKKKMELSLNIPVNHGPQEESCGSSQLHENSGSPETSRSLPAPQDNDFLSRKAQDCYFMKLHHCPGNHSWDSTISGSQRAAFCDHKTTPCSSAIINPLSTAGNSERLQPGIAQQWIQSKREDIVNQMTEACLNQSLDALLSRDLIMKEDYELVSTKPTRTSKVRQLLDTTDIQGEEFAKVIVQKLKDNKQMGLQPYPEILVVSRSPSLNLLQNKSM
SMILES,remaining binding at 1 µM [1] [%],remaining binding at 1 µM [2] [%],remaining binding at 1 µM [3] [%],remaining binding at 1 µM [4] [%],remaining binding at 1 µM [5] [%]
"Cc1ccc(C(=O)Nc2ccc(CN3CCN(C)CC3)c(C(F)(F)F)c2)cc1C#Cc1cnc2c(Nc3cnn(C)c3)cccn12 [Example 1, 4-methyl-3-((8-((1-methyl-1H-pyrazol-4-yl)amino)imidazo[1,2-a]pyridin-3-yl)ethynyl)-N-(4-((4-methylpiperazin-1-yl)methyl)-3-(trifluoromethyl)phenyl)benzamide]",74,78,97,68,7
"Cc1cn(-c2cc(NC(=O)c3ccc(C)c(C#Cc4cnc5c(Nc6cnn(C)c6)cccn45)c3)cc(C(F)(F)F)c2)cn1 [Example 12, 4-methyl-N-(3-(4-methyl-1H-imidazol-1-yl)-5-(trifluoromethyl)phenyl)-3-((8-((1-methyl-1H-pyrazol-4-yl)amino)imidazo[1,2-a]pyridin-3-yl)ethynyl)benzamide]",90,90,100,84,22
Cc1ccc(NC(=O)C2(C(=O)Nc3ccc(F)cc3)CC2)cc1C#Cc1cnc2c(Nc3cnn(C(C)C)c3)cccn12 [Example 78],100,100,100,100,99
